Data set [1] can be described thus: Binding affinity to purified p-glycoprotein by fluorescence quenching assay.
A short description of data set [2]: Binding affinity to microtubule after 30 mins by epothilone-B competition binding assay.
A short description of data set [3]: Cytotoxicity against multidrug-resistant human A2780AD cells overexpressing p-gp after 48 hrs by MTT assay. It is filed as functional, cell-based. To be noted: A2780 ADR.
Data set [4] is described as follows: Apparent permeability from apical to basolateral side of human Caco2 cells at 10 uM by LC/MS/MS analysis. It is filed as ADME, cell-based. As to conditions: Caco-2. (In general: Passage across Caco-2 layers is used to estimate intestinal permeability.)
Data set [5] is described as follows: Apparent permeability from basolateral to apical side of human Caco2 cells at 10 uM by LC/MS/MS analysis. It is filed as ADME, cell-based. As to conditions: Caco-2.
The test system of data set [6] is A2780. As to the kind of experiment: Cytotoxicity against human A2780 cells after 48 hrs by MTT assay. It is filed as functional, cell-based. As to conditions: A2780, 48 h. Background: Tetrazolium assays rely on reduction of a dye to a coloured formazan, in cell work by metabolically active cells.
The nature of data set [7]: Efflux ratio of permeability from basolateral to apical side to apical to basolateral side in human Caco2 cells at 10 uM by LC/MS/MS analysis. It is filed as ADME, cell-based. To be noted: Caco-2.
In data set [8] the test system is A2780. The experiment in a line: Resistant index, ratio of IC50 for multidrug-resistant human A2780AD cells overexpressing p-gp to IC50 for human A2780 cells. It is filed as functional.

The structures appear in SMILES notation.

For the compound `C/C=C(\C)C(=O)N[C@@H](c1ccccc1)[C@@H](O)C(=O)O[C@H]1C[C@@]2(O)[C@@H](OC(=O)c3cccc(N=[N+]=[N-])c3)[C@@H]3[C@]4(OC(C)=O)CO[C@@H]4C[C@H](OC(=O)CC)[C@@]3(C)C(=O)[C@H](O)C(=C1C)C2(C)C`, the Kd in data set [1] came out at 498 nM; in data set [2] it was 1.1 nM. Further, the IC50 was 14 nM in data set [3] and 2.7 nM with A2780 [6]. Moreover, the Papp A→B at 10 µM in data set [4] is 0.095 ×10⁻⁶ cm/s. Further, the Papp B→A at 10 µM in data set [5] was 0.265 ×10⁻⁶ cm/s. In addition, the efflux ratio at 10 µM in data set [7] stood at 2.79. For the same compound, the “Ratio IC50” value in the data set on A2780 [8] is listed as 5.2.

Consider `C/C=C(\C)C(=O)N[C@@H](c1ccccc1)[C@@H](O)C(=O)O[C@H]1C[C@@]2(O)[C@@H](OC(=O)c3cccc(N=[N+]=[N-])c3)[C@@H]3[C@]4(OC(C)=O)CO[C@@H]4C[C@H](OC(=O)C4CC4)[C@@]3(C)C(=O)[C@H](O)C(=C1C)C2(C)C`, for which the Kd in data set [1] worked out at 2150 nM; in data set [2], 0.95 nM. Further, the IC50 in data set [3] was 293 nM; in the data set on A2780 [6], 22 nM. Moreover, the Papp A→B at 10 µM in data set [4] worked out at 7.35 ×10⁻⁶ cm/s. In addition, in data set [5], the Papp B→A at 10 µM was 9.4 ×10⁻⁶ cm/s. Further, the efflux ratio at 10 µM in data set [7] amounted to 1.28. Further, in the data set with A2780 [8], the “Ratio IC50” value amounted to 13.3.

`C/C=C(\C)C(=O)N[C@@H](c1ccccc1)[C@@H](O)C(=O)O[C@H]1C[C@@]2(O)[C@@H](OC(=O)c3cccc(N=[N+]=[N-])c3)[C@@H]3[C@]4(OC(C)=O)CO[C@@H]4C[C@H](OC(=O)CN(C)C)[C@@]3(C)C(=O)[C@H](O)C(=C1C)C2(C)C`: the dissociation constant Kd in data set [1] came out at 2380 nM; in data set [2], 1.48 nM. Also, the IC50 in data set [3] worked out at 3200 nM; with A2780 [6], 7.2 nM. In addition, the Papp A→B at 10 µM in data set [4] was 4.19 ×10⁻⁶ cm/s. Besides, the Papp B→A at 10 µM in data set [5] was found to be 27 ×10⁻⁶ cm/s. For the same compound, the efflux ratio at 10 µM in data set [7] amounted to 6.44. The “Ratio IC50” value in the data set with A2780 [8] is 444.4.

Regarding `C/C=C(\C)C(=O)N[C@@H](c1ccccc1)[C@@H](O)C(=O)O[C@H]1C[C@@]2(O)[C@@H](OC(=O)c3cccc(N=[N+]=[N-])c3)[C@@H]3[C@]4(OC(C)=O)CO[C@@H]4C[C@H](OC(=O)CNC(=O)OC(C)(C)C)[C@@]3(C)C(=O)[C@H](O)C(=C1C)C2(C)C`, the figures for the Kd in data set [1] and in data set [2] were 6340 nM and 0.81 nM, respectively. The IC50 in data set [3] was 875 nM; in the data set with A2780 [6], 15.5 nM. In addition, the Papp A→B at 10 µM in data set [4] was 1.23 ×10⁻⁶ cm/s. Besides, the Papp B→A at 10 µM in data set [5] was determined as 8.53 ×10⁻⁶ cm/s. Also, the efflux ratio at 10 µM in data set [7] was 6.93. The “Ratio IC50” value in the data set on A2780 [8] amounted to 56.4.

In the case of `C/C=C(\C)C(=O)N[C@@H](c1ccccc1)[C@@H](O)C(=O)O[C@H]1C[C@@]2(O)[C@@H](OC(=O)c3cccc(N=[N+]=[N-])c3)[C@@H]3[C@]4(OC(C)=O)CO[C@@H]4C[C@H](OC(=O)CCl)[C@@]3(C)C(=O)[C@H](O)C(=C1C)C2(C)C`, the equilibrium dissociation constant (Kd) turned out to be 2750 nM in data set [1] and 0.62 nM in data set [2]. In addition, the IC50 came to 710 nM in data set [3] and 17.2 nM in the data set on A2780 [6]. In data set [4], the Papp A→B at 10 µM worked out at 0.19 ×10⁻⁶ cm/s. Besides, the Papp B→A at 10 µM in data set [5] is 1.07 ×10⁻⁶ cm/s. In addition, in data set [7], the efflux ratio at 10 µM was 5.63. Moreover, the “Ratio IC50” value in the data set with A2780 [8] was found to be 41.2.

`C/C=C(\C)C(=O)N[C@@H](c1ccccc1)[C@@H](O)C(=O)O[C@H]1C[C@@]2(O)[C@@H](OC(=O)c3cccc(N=[N+]=[N-])c3)[C@@H]3[C@]4(OC(C)=O)CO[C@@H]4C[C@H](OC(=O)CC(F)(F)F)[C@@]3(C)C(=O)[C@H](O)C(=C1C)C2(C)C`: the Kd in data set [1] came out at 4310 nM; in data set [2], 0.66 nM. Also, the IC50 in data set [3] amounted to 1300 nM; in the data set on A2780 [6], 33 nM. In addition, the Papp A→B at 10 µM in data set [4] amounted to 3 ×10⁻⁶ cm/s. The Papp B→A at 10 µM in data set [5] is 6.61 ×10⁻⁶ cm/s. The efflux ratio at 10 µM in data set [7] came out at 2.2. The “Ratio IC50” value in the data set with A2780 [8] is 39.4.

`C/C=C(\C)C(=O)N[C@@H](c1ccccc1)[C@@H](O)C(=O)O[C@H]1C[C@@]2(O)[C@@H](OC(=O)c3cccc(N=[N+]=[N-])c3)[C@@H]3[C@]4(OC(C)=O)CO[C@@H]4C[C@H](OC(=O)OCC)[C@@]3(C)C(=O)[C@H](O)C(=C1C)C2(C)C`: the Kd in data set [1] was found to be 1420 nM; in data set [2], 0.9 nM. Further, the IC50 in data set [3] was determined as 170 nM; in the data set on A2780 [6], 11.2 nM. Also, the Papp A→B at 10 µM in data set [4] was 7.46 ×10⁻⁶ cm/s. Besides, in data set [5], the Papp B→A at 10 µM turned out to be 12.6 ×10⁻⁶ cm/s. Further, in data set [7], the efflux ratio at 10 µM came to 1.68. Further, the “Ratio IC50” value in the data set on A2780 [8] was determined as 15.2.

Consider `C/C=C(\C)C(=O)N[C@@H](c1ccccc1)[C@@H](O)C(=O)O[C@H]1C[C@@]2(O)[C@@H](OC(=O)c3cccc(N=[N+]=[N-])c3)[C@@H]3[C@]4(OC(C)=O)CO[C@@H]4C[C@H](OC(=O)NC)[C@@]3(C)C(=O)[C@H](O)C(=C1C)C2(C)C`, for which the Kd in data set [1] was 3150 nM; in data set [2], 2.15 nM. Further, the IC50 in data set [3] worked out at 1400 nM; in the data set on A2780 [6], 7.4 nM. Further, in data set [4], the Papp A→B at 10 µM worked out at 2.55 ×10⁻⁶ cm/s. The Papp B→A at 10 µM in data set [5] worked out at 19.1 ×10⁻⁶ cm/s. Further, the efflux ratio at 10 µM in data set [7] was 7.48. Besides, in the data set on A2780 [8], the “Ratio IC50” value is 189.2.

`C/C=C(\C)C(=O)N[C@@H](c1ccccc1)[C@@H](O)C(=O)O[C@H]1C[C@@]2(O)[C@@H](OC(=O)c3cccc(N=[N+]=[N-])c3)[C@@H]3[C@]4(OC(C)=O)CO[C@@H]4C[C@H](OC(=O)N(C)C)[C@@]3(C)C(=O)[C@H](O)C(=C1C)C2(C)C`: the figures for the Kd in data set [1] and in data set [2] were 5290 nM and 2.45 nM, respectively. Further, the values for the IC50 (in data set [3]; in the data set with A2780 [6]) were 950 nM and 26 nM, respectively. In addition, in the data set with A2780 [8], the “Ratio IC50” value is 36.5.

As for `CC(=O)O[C@H]1C(=O)[C@@]2(C)[C@H]([C@H](OC(=O)c3ccccc3)[C@]3(O)C[C@H](OC(=O)[C@H](O)[C@@H](NC(=O)c4ccccc4)c4ccccc4)C(C)=C1C3(C)C)[C@]1(OC(C)=O)CO[C@@H]1C[C@@H]2O` [PACLITAXEL], the Kd amounted to 35 nM in data set [1] and 56 nM in data set [2]. The IC50 in data set [3] was found to be 1900 nM; in the data set on A2780 [6], 0.62 nM. Besides, the Papp A→B at 10 µM in data set [4] is 0.66 ×10⁻⁶ cm/s. Besides, in data set [5], the Papp B→A at 10 µM is 5.03 ×10⁻⁶ cm/s. Besides, the efflux ratio at 10 µM in data set [7] came to 7.62. Besides, in the data set on A2780 [8], the “Ratio IC50” value is 3064.

On to `CC(C)NCC(O)COc1cccc2ccccc12` (stereo not given) [PROPRANOLOL], for which the Papp A→B at 10 µM in data set [4] turned out to be 19.2 ×10⁻⁶ cm/s. Besides, in data set [5], the Papp B→A at 10 µM is 23.4 ×10⁻⁶ cm/s. Moreover, the efflux ratio at 10 µM in data set [7] amounted to 1.21.

As usually defined, the Kd is the concentration at which binding is half-saturated. Usually IC50 stands for the concentration that gives 50% inhibition. By Papp A→B is commonly meant how fast a substance crosses the layer from the apical side. By Papp B→A is commonly meant the apparent permeability from the basolateral to the apical side of a cell layer. Usually efflux ratio stands for the permeability from basolateral to apical divided by that in the opposite direction, in the common usage.

(Values after ChEMBL document CHEMBL1806422, “Effects of C7 substitutions in a high affinity microtubule-binding taxane on antitumor activity and drug transport” (Bioorg Med Chem Lett, 2011).)
